# Measurements from patent US12157746B2, “Tetrahydro-1H-pyrazino[2,1-a]isoindolylquinoline compounds for the treatment of autoimmune disease” (F. HOFFMANN-LA ROCHE AG, priority 2018, dated 2024).
# Target: T1, human TLR8 (Homo sapiens, UniProt Q9NR97)
# T1 sequence (Q9NR97 27-1041): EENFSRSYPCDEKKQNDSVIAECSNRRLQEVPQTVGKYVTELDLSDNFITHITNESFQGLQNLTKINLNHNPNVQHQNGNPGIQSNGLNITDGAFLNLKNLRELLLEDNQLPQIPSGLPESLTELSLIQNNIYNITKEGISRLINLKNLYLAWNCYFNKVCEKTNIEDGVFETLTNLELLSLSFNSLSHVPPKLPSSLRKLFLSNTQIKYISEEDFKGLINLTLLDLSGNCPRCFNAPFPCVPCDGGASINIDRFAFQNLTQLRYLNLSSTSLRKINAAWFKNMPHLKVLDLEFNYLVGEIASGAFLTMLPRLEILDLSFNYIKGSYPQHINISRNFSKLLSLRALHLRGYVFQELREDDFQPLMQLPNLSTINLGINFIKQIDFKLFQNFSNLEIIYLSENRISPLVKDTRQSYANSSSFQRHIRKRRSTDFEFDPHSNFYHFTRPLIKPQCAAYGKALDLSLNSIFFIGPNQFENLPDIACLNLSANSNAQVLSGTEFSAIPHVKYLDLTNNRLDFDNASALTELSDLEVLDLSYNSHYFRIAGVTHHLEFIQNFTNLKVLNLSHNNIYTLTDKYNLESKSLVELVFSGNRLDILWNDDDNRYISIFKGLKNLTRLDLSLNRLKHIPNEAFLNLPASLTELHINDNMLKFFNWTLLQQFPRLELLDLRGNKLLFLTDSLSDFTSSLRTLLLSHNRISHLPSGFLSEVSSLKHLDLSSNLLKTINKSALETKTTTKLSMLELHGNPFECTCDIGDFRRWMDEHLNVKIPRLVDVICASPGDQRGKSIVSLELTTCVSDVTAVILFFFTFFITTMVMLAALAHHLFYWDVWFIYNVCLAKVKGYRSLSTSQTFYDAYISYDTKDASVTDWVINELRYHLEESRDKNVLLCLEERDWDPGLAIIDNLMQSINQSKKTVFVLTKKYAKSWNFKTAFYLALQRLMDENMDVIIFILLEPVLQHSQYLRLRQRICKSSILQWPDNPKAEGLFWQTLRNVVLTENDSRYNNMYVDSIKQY
# Assay: HEK293-Blue-hTLR-8 cells assay
# Assay type: cell-based
# Details: HEK293-Blue-hTLR8 cells, R848 stimulation, 20 hrs, SEAP reporter; read-out: HEK/hTLR8 IC50
# From the text: HEK293-Blue-hTLR-8 Cells Assay:
# A stable HEK293-Blue-hTLR-8 cell line was purchased from InvivoGen (Cat. #: hkb-htlr8, San Diego, California, USA). These cells were originally designed for studying the stimulation of human TLR8 by monitoring the activation of NF-κB. A SEAP (secreted embryonic alkaline phosphatase) reporter gene was placed under the control of the IFN-β minimal promoter fused to five NF-κB and AP-1-binding sites. The SEAP was induced by activating NF-κB and AP-1 via stimulating HEK-Blue hTLR8 cells with TLR8 ligands. Therefore the reporter expression was declined by TLR8 antagonist under the stimulation of a ligand, such as R848, for incubation of 20 hrs. The cell culture supernatant SEAP reporter activity was determined using QUANTI-Blue™kit (Cat. #: rep-qb1, Invivogen, San Diego, Ca, USA) at a wavelength of 640 nm, a detection medium that turns purple or blue in the presence of alkaline phosphatase.
# HEK293-Blue-hTLR8 cells were incubated at a density of 250,000-450,000 cells/mL in a volume of 170 μL in a 96-well plate in Dulbecco's Modified Eagle's medium (DMEM) containing 4.5 g/L glucose, 50 U/mL penicillin, […], […], 2 mM L-glutamine, 10% (v/v) heat-inactivated fetal bovine serum with addition of 20 μL test compound 1n a serial dilution in the presence of final DMSO at 1% and 10 μL of 60 uM R848 in above DMEM, perform incubation under 37° C. in a CO2 incubator for 20 hrs. Then 20 μL of the supernatant from each well was incubated with 180 μL Quanti-blue substrate solution at 37° C. for 2 hrs and the absorbance was read at 620-655 nm using a spectrophotometer. The signaling pathway that TLR8 activation leads to downstream NF-κB activation has been widely accepted, and therefore similar reporter assay was modified for evaluating TLR8 antagonist.
row,SMILES,IC50
1,"C[C@@H]1CN(c2ccc(C#N)n3nccc23)C[C@@H]2c3ccc(N[C@H]4CNC[C@H]4F)cc3CN12 [Example 98, 4-[(4R,10bS)-8-[[(3S,4R)-4-fluoropyrrolidin-3-yl]amino]-4-methyl-3,4,6,10b-tetrahydro-1H-pyrazino[2,1-a]isoindol-2-yl]pyrazolo[1,5-a]pyridine-7-carbonitrile]",8.8 nM
2,"C[C@@H]1CN(c2ccc(C#N)n3nccc23)C[C@@H]2c3ccc(N4CCOC[C@H](N)C4)cc3CN12 [Example 101, 4-[(4R,10bS)-8-[(6R)-6-amino-1,4-oxazepan-4-yl]-4-methyl-3,4,6,10b-tetrahydro-1H-pyrazino[2,1-a]isoindol-2-yl]pyrazolo[1,5-a]pyridine-7-carbonitrile]",5.2 nM
3,"CO[C@H]1CCN(c2ccc3c(c2)CN2[C@H](C)CN(c4ccc(C#N)n5nccc45)C[C@H]32)C[C@H]1N [Example 106, 4-[(4R,10bS)-8-[(3R,4S)-3-amino-4-methoxy-1-piperidyl]-4-methyl-3,4,6,10b-tetrahydro-1H-pyrazino[2,1-a]isoindol-2-yl]pyrazolo[1,5-a]pyridine-7-carbonitrile]",2.9 nM
4,"CO[C@H]1CN(c2ccc3c(c2)CN2[C@H](C)CN(c4ccc(C#N)n5nccc45)C[C@H]32)C[C@@H]1N [Example 95, 4-[(4R,10bS)-8-[(3S,4S)-3-amino-4-methoxy-pyrrolidin-1-yl]-4-methyl-3,4,6,10b-tetrahydro-1H-pyrazino[2,1-a]isoindol-2-yl]pyrazolo[1,5-a]pyridine-7-carbonitrile]",4.6 nM
5,"C[C@@H]1CN(c2ccc(C#N)n3nccc23)C[C@@H]2c3ccc(N4C[C@@H](N)[C@](C)(O)C4)cc3CN12 [Example 108, 4-[(4R,10bS)-8-[(3R,4R)-4-amino-3-hydroxy-3-methyl-pyrrolidin-1-yl]-4-methyl-3,4,6,10b-tetrahydro-1H-pyrazino[2,1-a]isoindol-2-yl]pyrazolo[1,5-a]pyridine-7-carbonitrile]",8.9 nM
6,"C[C@@H]1CN(c2ccc(C#N)n3nccc23)C[C@@H]2c3ccc(N4CC[C@@](C)(N)C4)cc3CN12 [Example 103, 4-[(4R,10bS)-8-[(3R)-3-amino-3-methyl-pyrrolidin-1-yl]-4-methyl-3,4,6,10b-tetrahydro-1H-pyrazino[2,1-a]isoindol-2-yl]pyrazolo[1,5-a]pyridine-7-carbonitrile]",4.8 nM

# Other lines, results leading:
row,IC50,SMILES
1,< 3.2 nM,"C[C@@H]1CN(c2ccc(C#N)c3ncccc23)C[C@@H]2c3ccc(N4CCOC5(CNC5)C4)cc3CN12 [Example 24, 5-[(4R,10bS)-4-methyl-8-(5-oxa-2,8-diazaspiro[3.5]nonan-8-yl)-3,4,6,10b-tetrahydro-1H-pyrazino[2,1-a]isoindol-2-yl]quinoline-8-carbonitrile]"
2,< 3.2 nM,"C[C@@H]1CN(c2ccc(C#N)c3ncccc23)C[C@@H]2c3ccc(N4CC5(CNCCO5)C4)cc3CN12 [Example 35, 5-[(4R,10bS)-4-methyl-8-(5-oxa-2,8-diazaspiro[3.5]nonan-2-yl)-3,4,6,10b-tetrahydro-1H-pyrazino[2,1-a]isoindol-2-yl]quinoline-8-carbonitrile]"
3,< 3.2 nM,"C[C@@H]1CN(c2ccc(C#N)c3ncccc23)C[C@@H]2c3ccc(NC4CNCCOC4)cc3CN12 (stereo partly drawn) [Example 56, 5-[(4R,10bS)-4-methyl-8-(1,4-oxazepan-6-ylamino)-3,4,6,10b-tetrahydro-1H-pyrazino[2,1-a]isoindol-2-yl]quinoline-8-carbonitrile]"
4,< 3.2 nM,"CN[C@H]1CN(c2ccc3c(c2)CN2[C@H](C)CN(c4ccc(C#N)c5ncccc45)C[C@H]32)C[C@@H]1OC [Example 23, 5-[(4R,10bS)-8-[(3S,4S)-3-methoxy-4-(methylamino)pyrrolidin-1-yl]-4-methyl-3,4,6,10b-tetrahydro-1H-pyrazino[2,1-a]isoindol-2-yl]quinoline-8-carbonitrile]"
5,< 3.2 nM,"C[C@@H]1CN(c2ccc(C#N)c3ncccc23)C[C@@H]2c3cccc(N4CCNCC4)c3CN12 [Example 8, 5-[(4R,10bS)-4-methyl-7-piperazin-1-yl-3,4,6,10b-tetrahydro-1H-pyrazino[2,1-a]isoindol-2-yl]quinoline-8-carbonitrile]"
